Assays:
[1] = biological target: T1, aldosterone synthase (Homo sapiens, UniProt P19099); assay: Aldosterone cell secretion in NCI-H295R cells (aldosterone synthase inhibition, SPA); assay type: cell-based; details: human adrenocortical carcinoma NCI-H295R cells, 1 μM Ang II, 24 hr
T1 construct: host or cells: NCI-H295R
T1 sequence (P19099 25-503): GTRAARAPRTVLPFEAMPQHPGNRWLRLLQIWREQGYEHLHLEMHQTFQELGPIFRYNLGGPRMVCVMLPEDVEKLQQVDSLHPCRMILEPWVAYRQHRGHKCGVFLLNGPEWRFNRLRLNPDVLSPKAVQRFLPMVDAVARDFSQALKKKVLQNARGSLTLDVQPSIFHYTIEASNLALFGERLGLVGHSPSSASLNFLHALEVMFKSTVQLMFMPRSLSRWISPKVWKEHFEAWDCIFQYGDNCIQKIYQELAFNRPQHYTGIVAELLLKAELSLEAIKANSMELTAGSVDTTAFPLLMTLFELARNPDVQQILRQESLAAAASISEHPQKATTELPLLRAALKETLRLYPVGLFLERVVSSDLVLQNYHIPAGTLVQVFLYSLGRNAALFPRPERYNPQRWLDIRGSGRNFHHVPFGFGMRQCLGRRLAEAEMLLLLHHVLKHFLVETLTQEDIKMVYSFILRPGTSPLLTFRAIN
Source text: In particular, the aldosterone synthase inhibitory activities in vitro can be determined by the following assay.
Human adrenocortical carcinoma NCI-H295R cell line was obtained from American Type Culture Collection (Manassas, Va.). Insulin/transferrin/selenium (ITS)-A supplement (100×). DMEM/F-12, antibiotic/antimycotic (100×), and fetal bovine serum (FBS) were purchased from Invitrogen (Carlsbad, Calif.). Anti-mouse PVT scintillation proximity assay (SPA) beads and NBS 96-well plates were obtained from GE Health Sciences (Piscataway, N.J.) and Corning (Acton, Mass.), respectively. Solid black 96-well flat bottom plates were purchased from Costar (Corning, N.Y.). Aldosterone and angiotensin (Ang II) were purchased from Sigma (St. Louis, Mo.). D-[1,2,6,7-^3H(N)]aldosterone was acquired from PerkinElmer (Boston, Mass.). Nu-serum was a product of BD Biosciences (Franklin Lakes, N.J.). The NADPH regenerating system, dibenzylfluorescein (DBF), and human aromatase Supersomes® were obtained from Gentest (Woburn, Mass.).
For in vitro measurement of aldosterone activity, human adrenocortical carcinoma NCI-H295R cells are seeded in NBS 96-well plates at a density of 25,000 cells/well in 100 μl of a growth medium containing DMEM/F12 supplemented with 10% FCS, 2.5% Nu-serum, 1 μg ITS/ml, and 1× antibiotic/antimycotic. The medium is changed after culturing for 3 days at 37° C. under an atmosphere of 5% CO2/95% air. On the following day, cells are rinsed with 100 μl of phosphate-buffered saline (PBS) and incubated with 100 μl of treatment medium containing 1 μM Ang II and a compound at different concentrations in quadruplicate wells at 37° C. for 24 hr. At the end of incubation, 50 μl of medium is withdrawn from each well for measurement of aldosterone production by an SPA using mouse anti-aldosterone monoclonal antibodies.
Measurement of aldosterone activity can also be performed using a 96-well plate format. Each test sample is incubated with 0.02 μCi of D-[1,2,6,7-^3H(N)]aldosterone and 0.3 μg of anti-aldosterone antibody in PBS containing 0.1% Triton X-100, 0.1% bovine serum albumin, and 12% glycerol in a total volume of 200 μl at room temperature for 1 hr. Anti-mouse PVT SPA beads (50 μl) are then added to each well and incubated overnight at room temperature prior to counting in a Microbeta plate counter. The amount of aldosterone in each sample is calculated by comparing with a standard curve generated using known quantities of the hormone.
(§1) Inhibition of the release of certain steroids can be used as a measure of the respective enzyme inhibition by the added test compounds. The dose-dependent inhibition of enzymic activity by a compound is calculated by means of an inhibition plot which is characterized by an IC50.
The IC50 values for active test compounds are ascertained by a simple linear regression analysis in order to construct inhibition plots without data weighting. The inhibition plot is calculated by fitting a 4-parameter logistic function to the raw data points using the least squares method. The equation of the 4-parameter logistic function is calculated as follows: Y=(d−a)/((1+(x/c)b))+a, where: a=minimum data level, b=gradient, I […], d=maximum data level, x=inhibitor concentration.
The inhibition activity of aldosterone production can also be expressed in percentage inhibition (% inhibition) at a given concentration (e.g. % inhibition at 1 μM), which is the aldosterone level when the cell is treated with the given concentration of a compound of this invention (e.g. concentration of 1 μM) versus the aldosterone excretion when cell is free of the compound of the invention: % inhibition aldosterone production=[(Y−X)/Y]×100 wherein X is the level of aldosterone when the cell is treated with a compound of Formula I; and Y is the level of aldosterone when the cell is free of compound of Formula I.

[2] = biological target: T2, CYP11B1 (Homo sapiens, UniProt P15538); assay: Cortisol cell secretion in NCI-H295R cells (CYP11B1 activity); assay type: cell-based; details: compound at 1 μM; for inhibition at 1 µM: NCI-H295R, read-out: Cortisol cell secretion (% Inhib. @ 1 μM)
T2 construct: the NCI-H295R cells have Cyp11 B1 (steroid 11 β-hydroxylase); host or cells: NCI-H295R
T2 sequence (P15538 25-503): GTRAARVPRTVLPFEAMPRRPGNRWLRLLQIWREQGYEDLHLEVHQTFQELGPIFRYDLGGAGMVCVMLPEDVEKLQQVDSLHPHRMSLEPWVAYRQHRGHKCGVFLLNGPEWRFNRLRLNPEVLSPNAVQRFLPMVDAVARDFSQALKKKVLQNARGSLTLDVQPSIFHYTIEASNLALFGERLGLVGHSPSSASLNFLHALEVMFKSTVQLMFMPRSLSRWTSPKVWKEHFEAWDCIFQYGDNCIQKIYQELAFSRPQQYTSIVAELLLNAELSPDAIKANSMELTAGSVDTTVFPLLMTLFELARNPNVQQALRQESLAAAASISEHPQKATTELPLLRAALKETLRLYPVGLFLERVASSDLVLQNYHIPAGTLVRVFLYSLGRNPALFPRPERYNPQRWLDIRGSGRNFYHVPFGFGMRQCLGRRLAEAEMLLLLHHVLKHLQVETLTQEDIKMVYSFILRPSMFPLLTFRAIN
Source text: The in vitro inhibitory activities for CYP1B1 can be determined by the following assay.
The cell line NCI-H295R was originally isolated from an adrenocortical carcinoma and has been characterized in the literature through the stimulable secretion of steroid hormones and the presence of the enzymes essential for steroidogenesis. Thus, the NCI-H295R cells have Cyp11 B1 (steroid 11 β-hydroxylase). The cells show the physiological property of zonally undifferentiated human foetal adrenocortical cells which, however, have the capacity to produce the steroid hormones which are formed in the three, phenotypically distinguishable zones in the adult adrenal cortex.
The NCI-H295R cells (American Type Culture Collection, ATCC, Rockville, Md., USA) are grown in Dulbeoco's Modified Eagle'Ham F-12 Medium (DME/F12), which has been supplemented with Ulroser SF Serum (Soprachem, Geigy-Saint-Christophe, France), insulin, transferrin, selenite (I-T-S, Becton Dickinson Biosiences, Franklin lakes. NJ, USA) and antibiotics in 75 cm^2 cell culture vessels at 37° C. and in a 95% air-5% carbon dioxide atmosphere. The cells are subsequently transferred for colony formation into a 24-well incubation vessel. They are cultivated there in DME/F12 medium, which is now supplemented with 0.1% bovine serum instead of Ultroser SF for 24 hours. The experiment is initiated by cultivating the cells in DME/F12 medium which is supplemented with 0.1% bovine serum albumin and test compound, in the presence or absence of cell stimulants, for 72 hours. The test substance is added in a concentration range from 0.2 nanomolar to […]. Cell stimulants which can be used are angiotensin II (1 D or 100 nanomolar), potassium ions (16 millimolar), forskolin (10 micromolar) or a combination of two stimulants.
The excretion of aldosterone, cortisol, corticosterone and estradiol/estrone into the culture medium can be detected and quantified by commercially available, specific monoclonal antibodies in radioimmunoassays in accordance with the manufacturer's instructions.
as §1
The inhibition activity of cortisol production (CYP11B1 activity) can also be expressed in percentage inhibition (% inhibition) at a given concentration (e.g. % inhibition at 1 μM), which is the cortisol level when cell is treated with the given concentration of a compound of the invention (e.g. concentration of 1 μM) versus the cortisol excretion when cell is free of the compound of the invention. % inhibition cortisol production=[(Y′−X′)/Y′]×100 wherein X′ is the level of cortisol when the cell is treated with a compound of Formula I; and Y′ is the level of cortisol when the cell is free of compound of Formula I.

SMILES | IC50 [1] [nM] | inhibition at 1 µM [2] [%] | Cortisol cell secretion (% Inhib. @ 1 μM) ([2]; 1 µM) [%] | Cortisol cell secretion (% Inhib. @ 1 μM) [2] [%]
CC(O)c1ccncc1-c1ccc2oc(=O)n(C)c2c1 (single isomer, unassigned) [Example 7 Enantiomer 1, 5-(4-(1-hydroxyethyl)pyridin-3-yl)-3-methylbenzo[d]oxazol-2(3H)-one] | 437 |  |  | 
CC(O)c1ccncc1-c1ccc2oc(=O)n(C)c2c1 (single isomer, unassigned) [Example 7 Enantiomer 2, 5-(4-(1-hydroxyethyl)pyridin-3-yl)-3-methylbenzo[d]oxazol-2(3H)-one] | 452 |  |  | 
Cn1c(=O)oc2ccc(-c3cnccc3C(O)c3ccc(F)cc3)cc21 (single isomer, unassigned) [Example 8 Enantiomer 1, 5-(4-((4-fluorophenyl)(hydroxy)methyl)pyridin-3-yl)-3-methylbenzo[d]oxazol-2(3H)-one] | 53 | 77 |  | 
Cn1c(=O)oc2ccc(-c3cnccc3C(O)c3ccc(F)cc3)cc21 (single isomer, unassigned) [Example 8 Enantiomer 2, 5-(4-((4-fluorophenyl)(hydroxy)methyl)pyridin-3-yl)-3-methylbenzo[d]oxazol-2(3H)-one] | 66 |  | 73 | 
Cn1c(=O)oc2ccc(-c3cccnc3)cc21 [Example 1, 3-Methyl-5-pyridin-3-yl-3H-benzooxazol-2-one] | 17.8 | 58 |  | 
Cc1ccncc1-c1ccc2oc(=O)n(C)c2c1 [Example 2, 3-Methyl-5-(4-methyl-pyridin-3-yl)-3H-benzooxazol-2-one] | 4 | 82 |  | 
COc1cncc(-c2ccc3oc(=O)n(C)c3c2)c1 [Example 4, 5-(5-methoxypyridin-3-yl)-3-methylbenzo[d]oxazol-2(3H)-one] | 18 | 77 |  | 
CCN(Cc1ccccc1)Cc1cncc(-c2ccc3oc(=O)n(C)c3c2)c1 [Example 10, 5-{5-[(Benzyl-ethyl-amino)-methyl]-pyridin-3-yl}-3-methyl-3H-benzooxazol-2-one] | 17 | 96 |  | 

Now from value to compound:

IC50 [1] [nM] | inhibition at 1 µM [2] [%] | Cortisol cell secretion (% Inhib. @ 1 μM) ([2]; 1 µM) [%] | Cortisol cell secretion (% Inhib. @ 1 μM) [2] [%] | SMILES
28 | 64 |  |  | Cn1c(=O)oc2ccc(-c3cncc(C(O)C4CC4)c3)cc21 (single isomer, unassigned) [Example 13 Enantiomer 1, 5-(5-(cyclopropyl(hydroxy)methyl)pyridin-3-yl)-3-methylbenzo[d]oxazol-2(3H)-one]
30 |  |  | 64 | Cn1c(=O)oc2ccc(-c3cncc(C(O)C4CC4)c3)cc21 (single isomer, unassigned) [Example 13 Enantiomer 2, 5-(5-(cyclopropyl(hydroxy)methyl)pyridin-3-yl)-3-methylbenzo[d]oxazol-2(3H)-one]
47 | 57 |  |  | Cn1c(=O)oc2ccc(-c3cncc(C(N)C(F)(F)F)c3)cc21 (single isomer, unassigned) [Example 29 Enantiomer 1, 5-(5-(1-amino-2,2,2-trifluoroethyl)pyridin-3-yl)-3-methylbenzo[d]oxazol-2(3H)-one]
34 |  |  | 57 | Cn1c(=O)oc2ccc(-c3cncc(C(N)C(F)(F)F)c3)cc21 (single isomer, unassigned) [Example 29 Enantiomer 2, 5-(5-(1-amino-2,2,2-trifluoroethyl)pyridin-3-yl)-3-methylbenzo[d]oxazol-2(3H)-one]
128 | 39 |  |  | Cn1c(=O)oc2cc(F)c(-c3cncc(CO)c3)cc21 [Example 11]
3 | 89 |  |  | Cn1c(=O)oc2ccc(-c3cncc(C(C)(C)O)c3)cc21 [Example 14, 5-(5-(2-hydroxypropan-2-yl)pyridin-3-yl)-3-methylbenzo[d]oxazol-2(3H)-one]
21 | 83 |  |  | Cn1c(=O)oc2ccc(-c3cncc(CO)c3)cc21 [Example 15, 5-(5-(hydroxymethyl)pyridin-3-yl)-3-methylbenzo[d]oxazol-2(3H)-one]
34 | 57 |  |  | Cn1c(=O)oc2ccc(-c3cncc(CCO)c3)cc21 [Example 18, 5-(5-(2-hydroxyethyl)pyridin-3-yl)-3-methylbenzo[d]oxazol-2(3H)-one]

Reference: patent US8455522B2, “Benzoxazolone derivatives as aldosterone synthase inhibitors” (Novartis AG, priority 2009, dated 2013)
